We go through eight compounds from patent publication US20050288503A1, “Novel compounds” (priority 2002, published 2005).

The assay deals with CSBP/p38 (Homo sapiens, UniProt Q16539). The experiment in a line: CSBP/p38 Kinase Assay (32P transfer from ATP to EGFR-derived T669 peptide). The class given is biochemical. As to conditions: for IC50: yeast-expressed, activated and purified p38, 0.17 mM ATP, T669 peptide, read-out: positive inhibitory activity in the CSBP/p38 kinase assay at; for activity on retesting at a higher concentration: retested at 67 uM.

Each structure is given as a SMILES string. Bounds are passed on as bounds.

Chain of CSBP/p38 (Q16539 whole entry): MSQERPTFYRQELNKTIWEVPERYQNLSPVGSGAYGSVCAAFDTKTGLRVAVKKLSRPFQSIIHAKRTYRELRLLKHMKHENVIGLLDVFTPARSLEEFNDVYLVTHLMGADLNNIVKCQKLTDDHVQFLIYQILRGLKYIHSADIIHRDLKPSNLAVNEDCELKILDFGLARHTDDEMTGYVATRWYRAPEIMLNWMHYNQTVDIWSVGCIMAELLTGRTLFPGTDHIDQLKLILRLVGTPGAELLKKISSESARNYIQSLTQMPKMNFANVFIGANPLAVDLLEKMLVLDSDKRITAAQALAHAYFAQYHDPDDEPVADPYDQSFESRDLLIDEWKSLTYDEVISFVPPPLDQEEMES

On to `Cn1cnc2c(Nc3c(F)cccc3F)nc(-c3ccccc3Cl)nc21` [Example 11, [2-(2-chloro-phenyl)-9-methyl-9H-purin-6-yl]-(2,6-difluoro-phenyl)-amine], for which the IC50 is less than 50 µM. As for `Cc1ccc(-c2nc(Nc3c(F)cccc3F)c3ncn(C)c3n2)cc1` [Example 14, (2,6-difluoro-phenyl)-(9-methyl-2-p-tolyl-9H-purin-6-yl)-amine], the IC50 was less than 50 µM. Same read-out and setting: in the case of `Cn1cnc2c(Nc3c(F)cccc3F)nc(-c3ccccc3F)nc21` [Example 17, (2,6-difluoro-phenyl)-[2-(2-fluoro-phenyl)-9-methyl-9H-purin-6-yl]-amine] it was less than 50 µM; in that of `Cn1cnc2c(Nc3c(F)cccc3F)nc(-c3ccc(F)cc3F)nc21` [Example 19, (2,6-difluoro-phenyl)-[2-(2,4-difluoro-phenyl)-9-methyl-9H-purin-6 yl]-amine], less than 50 µM.

In the case of `CN(C)CCn1cnc2c(Nc3c(F)cccc3F)nc(-c3ccccc3F)nc21` [Example 22, (2,6-difluoro-phenyl)-[9-(2-dimethylamino-ethyl)-2-(2-fluoro-phenyl)-9H-purin-6-yl]-amine], the IC50 was less than 50 µM. Same read-out and setting: to `Fc1ccccc1-c1nc(Nc2c(F)cccc2F)c2ncn(Cc3ccccc3)c2n1` [Example 23] belongs less than 50 µM. Consider `Cn1cnc2c(N(C(N)=O)c3c(F)cccc3F)nc(-c3ccc(Cl)cc3)nc21` [Example 35, 1-[2-(4-chloro-phenyl)-9-methyl-9H-purin-6-yl]-1-(2,6-difluoro-phenyl)-urea], for which the “activity on retesting at a higher concentration” value is on record as “active”.

For the compound `Cn1cnc2c(N(C(N)=O)c3c(F)cccc3F)nc(-c3cc(F)cc(F)c3)nc21` [Example 46, 1-(2,6-difluoro-phenyl)-1-[2-(3,5-difluoro-phenyl)-9-methyl-9H-purin-6-yl]-urea], the “activity on retesting at a higher concentration” value is listed as “active”.
